The values that follow are results of earlier work, collected in patent publication US10059681B2, “Disubstituted maleic anhydrides with altered kinetics of ring closure” (Arrowhead Madison Inc., priority 2011, dated 2018).

For series [1] the following is noted: Kirby 1980.
For series [2] the following is noted: Eberson et al. 1971.

Take `CNC(=O)C1=C(C(=O)O)CCCC1`: in series [1], the “kobs of amine release” value was 3.5×10^−2.

For `O=C(O)c1ccccc1C(=O)O` [phthalic acid], the “K=k1/k−1 of equilibrium in water toward ring closure” value in series [2] is given as 10^−2.

Regarding `C/C(C(=O)O)=C(\C)C(=O)O` [dimethyl maleic acid], in series [2], the “K=k1/k−1 of equilibrium in water toward ring closure” value is given as 5.3.
